These results are taken from patent US20100316574A1, “Oncofetal Antigen/Immature Laminin Receptor Peptides for the Sensitization of Dendritic Cells for Cancer Therapy” (Quantum Immunologics, Inc., priority 2009, published 2010).

Entries after “also recorded” stand apart in the source; their conditions may differ.

One assay deals with Caspase 3/7. Nature of the assay: ApoOne Caspase 3/7 assay. It counts as cell-based. Conditions: DU145; data not shown. On the procedure:
(§1) Peptides were dissolved in either phosphate buffered saline (PBS) or DMSO and then PBS to a maximum of 20% DMSO and a 2× solution was made and placed into complete medium. After being diluted to appropriate concentration, 50 μl was dispensed into a 96-well assay plate, either coated with laminin/entactin complex (50 μg/ml) or untreated (Black with clear bottom) (Corning Life Sciences, Corning, N.Y.), 50 μl of cells (20,000 cells/well), and were grown overnight. Cells then had 20 μl of CellTiter-Blue added ((Promega, Madison, Wis.)) and incubated for an additional 2 hours at 37° C. Cells were then read on a DTX-880 (Beckman Inc.) following standard fluorescent protocols with an integration time of 0.001 sec. To determine if caspase activity was induced, Caspase 3/7 activity was determined using ApoOne assay (Promega, Madison, Wis.). The data was exported to Excel and then to Prism 5.0 (GraphPad Software, Inc) where it was plotted, and analyzed for statistical differences between the background control (diluents used for the peptide) using a one-way ANOVA.

The next assay relates to DU145 cells. Nature of the assay: CellTiter-Blue cell viability assay. Conditions: for effect on cell viability: compared to peptide diluent control; for cell viability versus controls: overnight. It counts as cell-based. On the procedure: All cells were grown in RPMI 1640 with L-glutamine; 100 I.U. Penicillin, 100 μg/ml Streptomycin, and 10% fetal calf serum at 37° C. in a humid chamber (Mediatech, Inc. Manassas, Va.). DU 145 cells were obtained from American Type Culture Collection (ATCC, Manassas, Va.) and grown in media following standard protocols. DU145 cells were grown to between 75 and 85% density and collected following standard protocols and counted using a modified Neubauer brightline hemacytometer and suspended at 400,000 cell/ml.
as §1

Another assay deals with T-cells. Conditions: previously described epitope; cited from earlier work.
In assay [1] the test system is dendritic cells pulsed with recombinant human OFA/iLRP. Put plainly: FACS binding of fluorescein-labeled 129 and 129-a peptides to dendritic cells pulsed with rHu OFA. Conditions: FITC-labeled peptide on dendritic cells pulsed with rHu OFA 100 ng/ml. It counts as cell-based.
Protocol: CD 14+ monocytes were grown in serum-free dendritic cell medium containing: 1000 IU/ml GM-CSF and 1000 IU/ml of IL-4 (Cell Genix Antioch, IL) at 1×10^6 cells per ml. The cells were pulsed with rHu OFA at 100 ng/ml for 36 hours. The pulsed dendritic cells were matured using serum-free dendritic cell medium containing: 10 ng/ml IL-1beta, 1000 IU/ml IL-6, and 5 ng/ml TNF-alpha with 1 μm prostaglandin E2 and matured for 2 days. At the end of two days, the cells were scraped from the plate and analyzed using flow cytometry analysis.
Briefly, the peptide that was labeled on a cysteine included allowing for conjugation using Fluorsceine-5-maledimide (Pierce/Thermo, Rockford, Ill.) following standard protocols. The unbound fluorsceine was removed using a standard dye-removal column (Pierce/Thermo, Rockford, Ill.). This cysteine can also be used to conjugate the peptides to a range of different products.
To determine if the maturation was successful, the cells were analyzed with CD14, CD83, CD80/86, and Class II MHC (HLA-DR) following standard protocols (R&D systems; Minneapolis, Minn.). Briefly, 0.5×10^5 cells per tube were suspended in 25 μl or phosphate buffered saline with 2% fetal calf serum. […] The cells were resuspended in 400 μl of PBS with 2% FCS and analyzed. If the cells could not be analyzed immediately, then they were fixed in 0.5% formaldehyde/PBS at 4° C. in the dark. […]

Take “amino acids 49-60: peptide made against the previously described OFA/iLRP epitope (amino acids 49-60), Rohrer 2006 (INLKRTWEKLLL; UniProt P08865 49-60, looked up, fragment) [reference compound]”: the “Caspase 3/7 activity / induction of apoptosis” value in the assay on Caspase 3/7 is “unable to affect cell viability or induce apoptosis”. Moreover, in the assay on DU145 cells, the “effect on cell viability” value was “unable to affect cell viability; also recorded: did not affect cell viability”. The T-cell proliferation result in the assay with T-cells is on record as “able to proliferate T-cells”.

As for “Ac-CADHQPLTEASYVNLPT-amide (Ac-CADHQPLTEASYVNLPT-NH2) [129 peptide, start site 129]”, in assay [1], the “mean fluoresence intesity (MFI)” value is given as 11,390+/−500.6.

Consider “GRFTPGTFTNQIQAAFREP [peptide 2, start site 101]”, for which, in the assay on Caspase 3/7, the “Caspase 3/7 activity / induction of apoptosis” value is recorded as “no significant change”. The figures for the “effect on cell viability” value in the assay on DU145 cells and in the assay with DU145 cells (listed as Peptide 2) were “significant effect” and “significantly different than the control”, respectively. The “decrease of cell viability” value with DU145 cells (versus control, p<0.05) was “over 2 fold”.

With TWEKLLLAARAIVAIENPAD [peptide 1], the “cell viability versus controls” value in the assay on DU145 cells (laminin/entactin coated plate (laminin)) and in the assay on DU145 cells (uncoated plate (w/o laminin)) was “no statistical difference” in each case.
